Assay results taken from the supplement of paper PMC10307832.

Key:
Assay in all cases: relative viability (nuclei count vs DMSO), 5 days (fraction); higher = more cells survive
Wnt-C59 + Foretinib = compound: CC1=NC=CC(=C1)C2=CC=C(C=C2)CC(=O)NC3=CC=C(C=C3)C4=CN=CC=C4 [Wnt-C59] + COc1cc2c(Oc3ccc(NC(=O)C4(C(=O)Nc5ccc(F)cc5)CC4)cc3F)ccnc2cc1OCCCN1CCOCC1 [Foretinib] (partner 0.25 µM)
How it was run: (§1)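 Relative viability was taken as the ratio of nuclei in treated wells to nuclei in vehicle wells. Lung cancer cell lines in 1536-well plates received compounds by pin tool one day after seeding, either one drug alone or a fixed anchor-drug dose plus five library-drug doses (not always all listed) in √10 steps. Nuclei were counted on 4× images after 5 days of treatment, and values are medians of duplicate plates.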

Wnt-C59 + Vorinostat = compound: CC1=NC=CC(=C1)C2=CC=C(C=C2)CC(=O)NC3=CC=C(C=C3)C4=CN=CC=C4 [Wnt-C59] + O=C(CCCCCCC(=O)Nc1ccccc1)NO [Vorinostat] (partner 1 µM)
How it was run: as §1

Lapatinib + Alpelisib = compound: CS(=O)(=O)CCNCc1ccc(-c2ccc3ncnc(Nc4ccc(OCc5cccc(F)c5)c(Cl)c4)c3c2)o1 [Lapatinib] + Cc1nc(NC(=O)N2CCC[C@H]2C(N)=O)sc1-c1ccnc(C(C)(C)C(F)(F)F)c1 [Alpelisib] (partner 2 µM)
How it was run: as §1

Wnt-C59 + Crizotinib = compound: CC1=NC=CC(=C1)C2=CC=C(C=C2)CC(=O)NC3=CC=C(C=C3)C4=CN=CC=C4 [Wnt-C59] + C[C@@H](Oc1cc(-c2cnn(C3CCNCC3)c2)cnc1N)c1c(Cl)ccc(F)c1Cl [Crizotinib] (partner 1 µM)
How it was run: as §1

Cell Line	relative viability (Wnt-C59 + Foretinib; first compound 0.001 µM)	relative viability (Wnt-C59 + Foretinib; first compound 0.01 µM)	relative viability (Wnt-C59 + Foretinib; first compound 0.03162 µM)	relative viability (Wnt-C59 + Foretinib; first compound 0.1 µM)	relative viability (Wnt-C59 + Vorinostat; first compound 0.001 µM)	relative viability (Wnt-C59 + Vorinostat; first compound 0.01 µM)	relative viability (Wnt-C59 + Vorinostat; first compound 0.03162 µM)	relative viability (Wnt-C59 + Vorinostat; first compound 0.1 µM)	relative viability (Lapatinib + Alpelisib; first compound 0.02 µM)	relative viability (Lapatinib + Alpelisib; first compound 0.06325 µM)	relative viability (Lapatinib + Alpelisib; first compound 0.2 µM)	relative viability (Lapatinib + Alpelisib; first compound 0.6325 µM)	relative viability (Lapatinib + Alpelisib; first compound 2 µM)	relative viability (Wnt-C59 + Crizotinib; first compound 0.001 µM)	relative viability (Wnt-C59 + Crizotinib; first compound 0.01 µM)	relative viability (Wnt-C59 + Crizotinib; first compound 0.03162 µM)	relative viability (Wnt-C59 + Crizotinib; first compound 0.1 µM)
201T	1.19	1.15	1.04	1.15	0.979	0.991	1.03	0.983	0.998	0.834	0.993	1	0.943	1.01	1.02	1.01	1.03
A549	1.09	0.969	0.974	0.906	–	–	–	–	0.609	0.528	0.755	0.665	0.516	0.802	0.676	0.752	0.676
A-427	1.02	0.977	1.29	1.24	0.851	0.878	0.874	0.895	–	1.04	1.1	1.07	1.04	0.982	0.798	0.962	0.905
ABC-1	0.982	1.16	1.07	0.97	1.05	1.07	1.07	1.18	–	1.06	1.23	0.88	0.838	1.03	1.21	1.11	0.868
BEN	0.877	0.615	0.786	0.747	0.581	0.523	0.675	0.579	0.961	0.904	1.19	0.909	0.853	0.897	0.84	1.02	0.923
CAL-12T	1.28	1.1	1.06	1.09	0.808	0.82	0.975	0.805	1.05	1.26	1.25	1.13	0.417	0.699	0.654	0.89	0.555
COR-L23	0.993	0.916	0.853	0.913	0.457	0.452	0.624	0.454	0.694	0.602	0.871	0.752	0.688	0.653	0.567	0.637	0.67
COR-L 105	1.13	0.722	1.03	0.911	0.991	0.71	0.877	0.857	0.872	0.765	1.03	0.804	0.294	0.879	0.808	0.853	0.76
Calu-6	0.856	0.903	0.936	0.834	–	–	–	–	0.919	0.93	1.06	1.01	0.894	0.787	0.779	0.883	0.825
ChaGo-K-1	1.01	0.872	0.978	0.996	0.751	0.781	0.689	0.774	–	–	–	–	–	1.08	–	1.21	1.09
